The values below are quoted from earlier work in patent US20120231996A1, “Phalloidin derivatives and methods for their synthesis” (priority 2006, published 2012).

Numbered stars: 1 amine (or outer) side, 2 acyl side, 3 side chain; on linkers, the order of the positions; unused ones are H or OH. Bridge positions count the residues as written; N and C are the ends. Square brackets hold non-standard residues; d marks the D form. Peptide text beside a SMILES is read from it. Trp(2-yl) = O=C([C@H](Cc1c([*:3])[nH]c2ccccc12)N[*:1])[*:2]; Leu(4R-OH,5-OH) = C[C@](O)(CO)C[C@H](N)C(=O)O; cisHyp = O=C(O)[C@@H]1C[C@H](O)CN1

Data set [1] has as its system filamentous actin (F-actin).
In a further data set the test system is actin. The conditions noted are these: in solution.

`C[C@@H]1NC(=O)[C@H](C[C@@](C)(O)CO)NC(=O)[C@@H]2Cc3c([nH]c4ccccc34)SC[C@H](NC(=O)[C@@H]([C@H](C)O)NC1=O)C(=O)N1C[C@@H](O)C[C@H]1C(=O)N[C@@H](C)C(=O)N2` [Phalloidin] (cyclo(A[dT]C[cisHyp]A[Trp(2-yl)][Leu(4R-OH,5-OH)]); thioether 3-6): the “Affinity of binding to filamentous actin” value in data set [1] was “binds with high affinity”. The “Effect on critical concentration of actin polymerization” value in the data set with actin was “lowers the critical concentration of actin polymerization”.
